In the supplement of paper PMC7661543:
± gives the standard deviation of the averaged measurements.

Columns and labels:
Assay in all cases: relative cell number vs DMSO control (72 h) (% of DMSO); higher = less growth inhibition (more cells)
Conditions in all cases: sgRNA knockout: sgNT
ZR-75-1 = test system: ZR-75-1
Method: (§1)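 QMAP-Seq: a pool of 5 breast cancer cell lines (ZR-75-1, SKBR3, HCC-38, MDA-MB-231, BT-20), each carrying 12 doxycycline-inducible Cas9 sgRNA perturbations (11 knockouts plus non-targeting sgNT), was treated with compounds for 72 h at four 10-fold doses (10 nM-10 uM or 1 nM-1 uM range). Barcodes were amplified and sequenced, and cell number was interpolated from 293T spike-in standard curves. The result is expressed as % of the median of DMSO wells. Two biological replicates.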

SKBR3 = test system: SKBR3
Method: as §1

HCC-38 = test system: HCC-38
Method: as §1

BT-20 = test system: BT-20
Method: as §1

MDA-MB-231 = test system: MDA-MB-231
Method: as §1

| SMILES | relative cell number (ZR-75-1; 10 nM) | relative cell number (ZR-75-1; 100 nM) | relative cell number (ZR-75-1; 1000 nM) | relative cell number (ZR-75-1; 10000 nM) | relative cell number (SKBR3; 10 nM) | relative cell number (SKBR3; 100 nM) | relative cell number (SKBR3; 1000 nM) | relative cell number (SKBR3; 10000 nM) | relative cell number (HCC-38; 10 nM) | relative cell number (HCC-38; 100 nM) | relative cell number (HCC-38; 1000 nM) | relative cell number (HCC-38; 10000 nM) | relative cell number (BT-20; 10 nM) | relative cell number (BT-20; 100 nM) | relative cell number (BT-20; 1000 nM) | relative cell number (BT-20; 10000 nM) | relative cell number (MDA-MB-231; 10 nM) | relative cell number (MDA-MB-231; 100 nM) | relative cell number (MDA-MB-231; 1000 nM) | relative cell number (MDA-MB-231; 10000 nM) | relative cell number (ZR-75-1; 1 nM) | relative cell number (SKBR3; 1 nM) | relative cell number (HCC-38; 1 nM) | relative cell number (BT-20; 1 nM) | relative cell number (MDA-MB-231; 1 nM) |
| --- | --- | --- | --- | --- | --- | --- | --- | --- | --- | --- | --- | --- | --- | --- | --- | --- | --- | --- | --- | --- | --- | --- | --- | --- | --- |
| O=P1(NCCCl)OCCCN1CCCl (stereo not given) [Ifosfamide] | 69.6 ± 31 | 107 ± 35 | 79.1 ± 40 | 85.6 ± 8.3 | 74.2 ± 5.4 | 74.6 ± 24 | 82.8 ± 25 | 71.9 ± 38 | 107 ± 4.6 | 96 ± 20 | 105 ± 14 | 100 ± 11 | 71.6 ± 2.8 | 89.6 ± 16 | 109.5 ± 0.23 | 84.7 ± 16 | 75.5 ± 8 | 95.4 ± 25 | 103 ± 13 | 95.5 ± 5.4 |  |  |  |  |  |
| O=C(/C=C/c1ccc(O)cc1)c1ccc(O)cc1O [Isoliquiritigenin] | 120 ± 22 | 88 ± 10 | 99.8 ± 30 | 83.9 ± 5.5 | 83.1 ± 20 | 109 ± 30 | 82.7 ± 16 | 68.9 ± 8.6 | 96.1 ± 6.6 | 92.5 ± 6.5 | 96.7 ± 11 | 86.5 ± 9.8 | 113 ± 12 | 95.4 ± 25 | 80.4 ± 11 | 94.9 ± 1.9 | 87.3 ± 22 | 75.5 ± 23 | 87 ± 3 | 88 ± 26 |  |  |  |  |  |
| CCn1c(=O)c2c(nc(/C=C/c3ccc(OC)c(OC)c3)n2C)n(CC)c1=O [Istradefylline] | 128 ± 37 | 114 ± 3.4 | 110 ± 7.6 | 94.9 ± 19 | 80.5 ± 18 | 84.2 ± 5.3 | 99.5 ± 23 | 112 ± 15 | 88.28 ± 0.69 | 99.3 ± 24 | 93.3 ± 8.3 | 106 ± 2.4 | 109 ± 12 | 104 ± 5.7 | 94.8 ± 12 | 106 ± 8.2 | 86 ± 1.8 | 146 ± 30 | 93.8 ± 5.8 | 105 ± 43 |  |  |  |  |  |
| O=C(c1ccc(/C=C/c2n[nH]c3ccccc23)cc1)N1CCNCC1 [KW2449] | 75.6 ± 8.1 | 104 ± 3.9 | 48.8 ± 12 | 56 ± 10 | 69 ± 16 | 72.7 ± 10 | 104 ± 5.3 | 73.1 ± 49 | 88 ± 8 | 87.64 ± 0.15 | 81 ± 5.1 | 42.2 ± 5.9 | 109 ± 15 | 89.6 ± 4.7 | 113 ± 20 | 79.4 ± 13 | 103 ± 14 | 116 ± 35 | 78.79 ± 0.17 | 35.4 ± 8.4 |  |  |  |  |  |
| O=C(Cc1ccc(-c2ccc(OCCN3CCOCC3)cc2)cn1)NCc1ccccc1 [KX2391] | 132 ± 43 | 24.8 ± 2.5 | 24.6 ± 4.9 | 17.8 ± 8.4 | 91.5 ± 17 | 17.8 ± 2 | 8.71 ± 3 | 10.3 ± 2.5 | 139 ± 16 | 24.4 ± 0.93 | 24.1 ± 1.9 | 30.8 ± 3.4 | 127 ± 31 | 36.5 ± 7.8 | 33.3 ± 7 | 31.8 ± 10 | 108 ± 56 | 30.3 ± 9.2 | 18 ± 2.3 | 19.78 ± 0.15 |  |  |  |  |  |
| COc1cc(C(=O)N2CCC(N3CCN(C)CC3)CC2)ccc1Nc1ncc2c(n1)N(C)c1ccccc1C(=O)N2C [LRRK2IN1] | 106 ± 7 | 152 ± 59 | 69.4 ± 3 | 19.1 ± 5.2 | 111 ± 44 | 70.9 ± 6 | 71 ± 31 | 32.9 ± 13 | 100 ± 8.9 | 84.8 ± 7 | 67.3 ± 4 | 42.4 ± 1.1 | 116 ± 14 | 93.7 ± 7.9 | 93.8 ± 15 | 38.2 ± 4 | 123 ± 3.5 | 96.6 ± 1.3 | 44.2 ± 7.9 | 16 ± 2.8 |  |  |  |  |  |
| CS(=O)(=O)CCNCc1ccc(-c2ccc3ncnc(Nc4ccc(OCc5cccc(F)c5)c(Cl)c4)c3c2)o1 [Lapatinib] | 112 ± 32 | 63.6 ± 13 | 86.8 ± 17 | 33.4 ± 10 | 77.6 ± 11 | 73.9 ± 0.55 | 64.9 ± 19 | 16.3 ± 2.1 | 97.5 ± 7 | 87 ± 6.9 | 89.7 ± 7.5 | 60.2 ± 1.2 | 96.3 ± 16 | 84.7 ± 12 | 78.7 ± 9.5 | 77 ± 4.7 | 120 ± 15 | 90 ± 36 | 83.6 ± 3 | 38.2 ± 8.8 |  |  |  |  |  |
| COc1cc2nccc(Oc3ccc(NC(=O)NC4CC4)c(Cl)c3)c2cc1C(N)=O [Lenvatinib] | 84.1 ± 11 | 92.2 ± 22 | 108 ± 20 | 90.8 ± 15 | 111 ± 9.8 | 92.6 ± 8.6 | 85.9 ± 42 | 94.1 ± 35 | 95.3 ± 5.8 | 96.8 ± 4.3 | 101 ± 33 | 68.4 ± 10 | 94.9 ± 21 | 97.5 ± 14 | 128 ± 7.1 | 93.5 ± 36 | 94.7 ± 34 | 122 ± 7.1 | 114 ± 15 | 86.5 ± 25 |  |  |  |  |  |
| N#Cc1ccc(C(c2ccc(C#N)cc2)n2cncn2)cc1 [Letrozole] | 93.6 ± 24 | 106 ± 30 | 60.6 ± 7.9 |  | 97.5 ± 23 | 110 ± 22 | 121.06 ± 0.081 |  | 107 ± 13 | 111 ± 12 | 95 ± 12 |  | 89.6 ± 27 | 95.8 ± 6.8 | 104 ± 16 |  | 109 ± 10 | 77.2 ± 7.3 | 106 ± 11 |  | 109 ± 14 | 87.5 ± 18 | 94.5 ± 6.1 | 83 ± 35 | 84.7 ± 9.7 |
| Cc1ccc(F)c(NC(=O)Nc2ccc(-c3cccc4[nH]nc(N)c34)cc2)c1 [Linifanib] | 86.4 ± 18 | 97.6 ± 3.9 | 93.6 ± 40 | 33.4 ± 4.6 | 88.8 ± 1.8 | 107 ± 3.3 | 121 ± 7.9 | 40 ± 0.42 | 94.4 ± 14 | 77.6 ± 10 | 118 ± 15 | 55.4 ± 4.2 | 73.8 ± 4.6 | 105 ± 23 | 89.1 ± 1 | 60.5 ± 3.3 | 70.5 ± 23 | 112 ± 30 | 100 ± 22 | 22.1 ± 0.58 |  |  |  |  |  |
| C[C@]1(O)C[C@@H](c2nc(-c3ccc4ccc(-c5ccccc5)nc4c3)c3c(N)nccn32)C1 [Linsitinib] | 90.6 ± 23 | 95.7 ± 6.6 | 70.9 ± 15 | 65.7 ± 3.7 | 94.7 ± 12 | 104 ± 18 | 78.71 ± 0.77 | 78.1 ± 11 | 95.4 ± 8 | 99.1 ± 12 | 78 ± 3.6 | 70.1 ± 4.4 | 111 ± 19 | 121 ± 28 | 79.2 ± 3.2 | 102 ± 11 | 116 ± 10 | 104 ± 14 | 65.3 ± 20 | 64.9 ± 13 |  |  |  |  |  |
| Nc1nc(OCc2cc(Br)cs2)c2[nH]cnc2n1 [Lomeguatrib] | 103 ± 42 | 127 ± 3.4 | 78.2 ± 47 | 74.8 ± 5.2 | 111 ± 1.7 | 68.1 ± 13 | 104 ± 14 | 90.4 ± 27 | 98.2 ± 6.3 | 88.5 ± 10 | 89.6 ± 22 | 81.9 ± 8.3 | 101 ± 13 | 115 ± 3.5 | 89.5 ± 11 | 93.7 ± 13 | 117 ± 22 | 125 ± 8.7 | 127.8 ± 0.46 | 86.4 ± 4.3 |  |  |  |  |  |
